Results taken from patent US7456154B2 (priority 2001, dated 2008).
Several values for one entry are separate records, joined by “and”; a condition that tells them apart may be missing. Equal values may be shown once.

Tests used:
[1] = test system: EAMG rats; assay: Treadmill running time and clinical status of EAMG rats; type: in vivo, rat; settings: for Treadmill Performance Time: individual EAMG rat; for Clinical score: individual rat
[2] = test system: AChE-S; assay: AChE-S expression in mandibular lymph nodes of Crl:CD rats; type: in vivo, rat; settings: 0.50 μg/g/day, 7 days; rEN101 oral or i.v., hEN101 i.v.
[3] = test system: AChE-R mRNA; assay: AChE-R mRNA in mandibular lymph nodes of Crl:CD rats; type: in vivo, rat; settings: 0.50 μg/g/day, 7 days; rEN101 oral or i.v., hEN101 i.v.; vs saline
Procedure: A study of the potential efficacy as well as toxicity of hEN101 was conducted on 4 week-old Crl:CD rats. To groups of 12 animals (6 males, 6 females) were administered 0.0 (saline only), 0.50 or 2.50 μg/g/day of hEN101 by oral gavage (o.g.), 0.50 μg/g/day of rEN101 by o.g., or 0.50 μg/g/day of rEN101 or hEN101 by i.v. injection. Additionally, there was a control group that was not injected. For 7 days the animals were checked for gross signs of toxicity: mortality, body weight, food consumption, ophtalmology, hematology (peripheral blood), and blood chemistry. At 7 days they were sacrificed and examined post mortem for macroscopic pathology and organ weight. Fixed sections of brain (cerebellum, cerebrum, midbrain, medulla), heart (auricular and ventricular regions), kidneys (cortex, medulla, papilla regions), liver (all main lobes), lungs (two major lobes, including bronchi), lymph nodes (mandibular and mesenteric), spinal cord (transverse and longitudinal sections at cervical, lumbar and thoracic levels), caecum, colon, duodenum, ileum, jejunum, esophagus, rectum, spleen and stomach (keratinized, glandular and antrum) were stained with hematoxylin/eosin to reveal necrosis or cell death.
Mandibular lymph nodes were examined for the effect of EN101 on AChE-R mRNA. […]

[4] = test system: AChE-S mRNA; assay: In situ hybridization of AChE-S mRNA in monkey spinal cord; type: in vivo, Cynomolgus monkey; settings: oral 0.15 and 0.50, i.v. 0.50 μg/g/day, 7 days
Procedure: In situ hybridization: Tissues were fixed in 4% paraformaldehyde and cut into 7 μm paraffin embedded sections. Spinal cord sections were deparaffinized, rehydrated using serial ethanol dilutions and permeabilized with proteinase K (10 μg/ml at room temp.). Slides were exposed to 5′ biotinylated, fully 2′-oxymethylated AChE-R or AChE-S-specific 50-mer cRNA probes complementary to human ACHE pseudo-intron 4 or exon 6, respectively [Grisaru et al. (2001) id ibid.]. Hybridization was performed overnight at 52° C. in hybridization mixture containing 10 μg/ml probe, 50 μg/ml yeast tRNA, 50 μg/ml heparin and 50% formamide in 375 mM Na chloride, 37.5 mM Na citrate, pH 4.5. For monkey sections, the probe was constructed according to the human AChE-R sequence; for rat sections, according to the mouse sequence. Slides were washed to remove non-hybridized probe, blocked with 1% skim milk containing 0.01% Tween-20 and 2 mM levamisole, an alkaline phosphatase inhibitor used to suppress non-specific staining and incubate with streptavidin-alkaline phosphatase (Amersham Pharmacia). Fast Red™ substrate (Roche Diagnostics) was used for detection. DAPI staining (Sigma Chemical Co., St. Louis, Mo., USA) served to visualize nuclei. Microscope images were analyzed with Image Pro Plus 4.0 (Media Cybernetics) software. […]

[5] = test system: healthy rats; assay: Treadmill running time of healthy rats; type: in vivo, rat; settings: 250 μg/Kg
Procedure: Exercise training on treadmill: To establish a clinical measure of neuromuscular performance in EAMG rats, a treadmill assay was performed. Animals were placed on an electrically powered treadmill [Moran et al. (1996) J Therm Biol 21, 171-181] at 25 m/min (a physical effort of moderate intensity) until visibly fatigued. The amount of time the rats were able to run was recorded before and after anti-sense or Mestinon® treatment.

[6] = test system: EAMG rats; assay: Electromyography: CMAP ratio under repetitive 3 Hz nerve stimulation in EAMG rats; type: in vivo, rat; settings: for CMAP ratio (5th vs. 1st amplitude): average ± SEM

In the case of 5′-CTGCCACGTTCTCCTGCACC-3′ [hEN101], the “Effect on muscle stamina in EAMG rats” value ([1]; 0.25 μg/g oral single dose) is reported as “promoted muscle stamina”, the “Treadmill Performance Time” value ([1]; 5 h, 0.25 μg/g oral single dose) is reported as 300 s and 120 s and 150 s and 70 s and the “Treadmill Performance Time” value ([1]; 24 h, 0.25 μg/g oral single dose) is reported as 345 s and 170 s and 380 s and 360 s and 30 s. For the same substance, the Clinical score ([1]; 24 h, scale 0 to 5 (death), 0.25 μg/g oral single dose) was “(1) (3×) and (2) and |||| (3) and (3)”, the “Treadmill Performance Time” value ([1]; 48 h, 0.25 μg/g oral single dose) was 85 s and 290 s and the Clinical score ([1]; 48 h, scale 0 to 5 (death), 0.25 μg/g oral single dose) was 2.5 and 2 and || (5). The “Treadmill Performance Time” value ([1]; before (basal), 0.25 μg/g oral single dose) was 210 s and 80 s and 180 s and 30 s and 110 s and 0 s, the Clinical score ([1]; before (basal), scale 0 (no weakness) to 5 (death)) was “(2.5) (2×) and 3 and (3.5) and (3) and 3.5” and the “Expression of AChE-S synaptic variant in mandibular lymph nodes” value [2] was “did not affect the expression”. The “AChE-R mRNA levels in mandibular lymph nodes” value [3] was “inconsistent in depressing AChE-R mRNA levels” and the “AChE-S mRNA in spinal cord” value [4] was “no apparent reduction”.

For “5′-CTGCGATATTTTCTTGTACC-3′ (chemistry not given here) [rEN101]”, the “Treadmill running time after treatment” value ([1]; EAMG disease grade 2, 250 μg/Kg i.v., 24 h) was 488 ± 58 s, the “Treadmill running time before treatment” value ([1]; EAMG disease grade 2, 25 m/min) was 247 ± 35 s and the “Treadmill running time after treatment” value ([1]; EAMG disease grade 3, 250 μg/Kg i.v., 24 h) was 500 ± 193 s. The “Treadmill running time before treatment” value ([1]; EAMG disease grade 3, 25 m/min) was 179 ± 21 s, the “Treadmill running time after treatment” value ([1]; EAMG disease grade 4, 250 μg/Kg i.v., 24 h) was 212 ± 59 s and the “Treadmill running time before treatment” value ([1]; EAMG disease grade 4, 25 m/min) was 32 ± 6 s. For the same substance, the “Effect on treadmill running of healthy animals” value [5] was “not significantly affected”, the “Expression of AChE-S synaptic variant in mandibular lymph nodes” value [2] was “did not affect the expression” and the “Duration of effective CMAP correction” value ([6]; 50 μg/Kg i.v.) was 24 h. The “Duration of CMAP rectification” value ([6]; 500 μg/Kg i.v.) was 72 h, the “Extent of CMAP rectification” value ([6]; 500 μg/Kg i.v.) was “up to 125 % of baseline” and the “Average CMAP ratio in treated animals” value ([6]; EAMG rats, FIG. 9B inset) was 107.4±3.8 % of first depolarization. For the same substance, the “Duration of restoration of CMAP decline” value ([6]; doses between 10-500 μg/Kg) was “up to 72 h”, the “Time to retrieve stable CMAP ratios” value ([6]; i.v., doses 10-500 μg/Kg) was ≤ 1 h and the “IC50 of saturable CMAP response (dose response curve)” value ([6]; i.v., up to 5 h following injection (1 and 5 h)) was < 0.01 mg/kg. The “CMAP ratio (5th vs. 1st amplitude)” value ([6]; intravenous, EAMG rats, 0 h, 50 μg/Kg) was 0.87 ± 0.01, the “CMAP ratio (5th vs. 1st amplitude)” value ([6]; intravenous, EAMG rats, 1 h, 50 μg/Kg) was 1.00 ± 0.01 and the “CMAP ratio (5th vs. 1st amplitude)” value ([6]; intravenous, EAMG rats, 5 h, 50 μg/Kg) was 0.98 ± 0.02. For the same substance, the “CMAP ratio (5th vs. 1st amplitude)” value ([6]; intravenous, EAMG rats, 24 h, 50 μg/Kg) was 1.00 ± 0.00, the “Effect of oral administration on CMAP decline” value ([6]; oral gavage, 50 μg/Kg oligonucleotide, 1000 μg/kg pyridostigmine, CMAP 1, 5, 24 h) was “as effective as 25 μg/Kg administered i.v” and the “CMAP ratio (5th vs. 1st amplitude)” value ([6]; oral, EAMG rats, 0 h, 50 μg/Kg oligonucleotide, 1000 μg/Kg pyridostigmine) was 0.84 ± 0.03. For the same substance, the “CMAP ratio (5th vs. 1st amplitude)” value ([6]; oral, EAMG rats, 1 h, 50 μg/Kg oligonucleotide, 1000 μg/Kg pyridostigmine) was 0.97 ± 0.02, the “CMAP ratio (5th vs. 1st amplitude)” value ([6]; oral, EAMG rats, 5 h, 50 μg/Kg oligonucleotide, 1000 μg/Kg pyridostigmine) was 0.97 ± 0.03 and the “CMAP ratio (5th vs. 1st amplitude)” value ([6]; oral, EAMG rats, 24 h, 50 μg/Kg oligonucleotide, 1000 μg/Kg pyridostigmine) was 1.01 ± 0.01. The “CMAP ratio 24 h following single oral administration” value ([6]; single oral dose, rEN101 50 μg/kg, pyridostigmine 1000 μg/kg) was “no decline was detected” and the “AChE-R mRNA levels in mandibular lymph nodes” value [3] was “inconsistent in depressing AChE-R mRNA levels”.
